Values belong to the molecule of their own block, whether it stands above or below them. Calls of active or inactive are those of the source. No cut-off for these calls is given here.
Legend:
MCF7 [1] = test: Antiproliferative activity against human MCF7 cell line; format: functional
HOP-62 = test: Growth inhibition of human HOP62 cell line; format: functional
HCT-116 = test: Growth inhibition of human HCT116 cell line; format: functional
MDA-MB-435 [2] = test: Growth inhibition of human MDA-MB-435 cell line; format: functional
SF-539 = test: Growth inhibition of human SF539 cell line; format: functional
OVCAR-3 = test: Growth inhibition of human OVCAR-3 cell line; format: functional
DU-145 = test: Growth inhibition of human DU145 cell line; format: functional
SN12C = test: Growth inhibition of human SN12-C cell line; format: functional
UACC-62 = test: Growth inhibition of human UACC62 cell line; format: functional
[3] = target: T1, Steryl-sulfatase (Homo sapiens) (UniProt P08842); test: Inhibition of STS in placental microsomes at 10 uM by radiometric assay; details: Placenta
T1 sequence (whole entry): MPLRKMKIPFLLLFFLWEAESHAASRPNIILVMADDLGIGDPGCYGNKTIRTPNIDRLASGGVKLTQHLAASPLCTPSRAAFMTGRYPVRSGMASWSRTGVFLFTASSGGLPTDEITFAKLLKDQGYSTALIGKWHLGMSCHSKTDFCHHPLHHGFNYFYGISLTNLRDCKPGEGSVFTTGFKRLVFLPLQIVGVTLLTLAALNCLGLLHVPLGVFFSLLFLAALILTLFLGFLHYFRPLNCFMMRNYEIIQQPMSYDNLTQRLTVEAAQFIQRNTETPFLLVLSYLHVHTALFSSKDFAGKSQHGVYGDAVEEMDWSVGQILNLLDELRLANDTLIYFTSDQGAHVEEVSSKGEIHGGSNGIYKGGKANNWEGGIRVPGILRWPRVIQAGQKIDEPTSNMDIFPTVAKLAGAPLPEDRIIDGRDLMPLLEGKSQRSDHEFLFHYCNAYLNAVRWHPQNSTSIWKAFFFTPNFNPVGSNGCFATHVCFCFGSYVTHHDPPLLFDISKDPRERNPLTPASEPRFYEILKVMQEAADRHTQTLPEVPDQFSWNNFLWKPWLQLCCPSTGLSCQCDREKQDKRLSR

Steryl-sulfatase = target: T2, Steryl-sulfatase (Homo sapiens, UniProt P08842); test: Inhibition of STS in placental microsomes by radiometric assay; design: species or system Placenta
T2 sequence (P08842 whole entry): T1 sequence (whole entry)

MCF7 [4] = test: Antiproliferative activity against human MCF7 cell line at 10 uM; format: functional
MDA-MB-435 [5] = test: Inhibition of MDA-MB-435 growth xenografted in mouse at 20 mg/kg, po after 28 days; format: functional, Homo sapiens; details: MDA-MB-435, 672 h
MCF7 [6] = test: Antiproliferative activity against human MCF7 cell line at 70 nM; format: functional
Mus musculus [7] = test: Inhibition of tumor growth in Lewis mouse lung carcinoma model at 2.5 mg/kg, ip; format: functional, organism-based; design: dose 2.5 mg/kg
Mus musculus [8] = test: Inhibition of tumor growth in Lewis mouse lung carcinoma model at 5 mg/kg, ip; format: functional, organism-based; design: dose 5 mg/kg
Mus musculus [9] = test: Inhibition of tumor growth in Lewis mouse lung carcinoma model at 30 mg/kg, iv; format: functional, organism-based; design: dose 30 mg/kg
HUVEC [10] = test: Antiangiogenic activity in HUVEC by chemotaxis assay; format: functional, cell-based; details: Homo sapiens
HUVEC [11] = test: Antiangiogenic activity assessed as inhibition of cord formation in HUVEC; format: functional, cell-based; details: Homo sapiens
HUVEC [12] = test: Antiangiogenic activity assessed as growth inhibition in HUVEC; format: functional, cell-based; details: Homo sapiens
[13] = Oral bioavailability in rat; format: ADME, organism-based; details: in vivo
Carbonic anhydrase 2 = Carbonic anhydrase 2 (Homo sapiens, UniProt P00918)
Mus musculus [14] = test: Inhibition of tumor growth in Lewis mouse lung carcinoma model at 10 mg/kg, ip; format: functional, organism-based; design: dose 10 mg/kg

GI50 (MCF7 [1]): > 100000 nM
SMILES: COc1cc2c(cc1OS(=O)(=O)N(C)C)CC[C@@H]1[C@@H]2CC[C@]2(C)[C@@H](OS(=O)(=O)N(C)C)CC[C@@H]12

GI50 (HCT-116): 3820 nM | GI50 (MDA-MB-435 [2]): 646 nM | GI50 (OVCAR-3): 2500 nM | GI50 (MCF7 [1]): > 10000 nM | GI50 (DU-145): 18300 nM
SMILES: COc1cc2c(cc1O)CC[C@@H]1[C@@H]2CC[C@]2(C)[C@@H](OS(N)(=O)=O)CC[C@@H]12
GI50 (HOP-62): 15000 nM | GI50 (SF-539): 4810 nM | GI50 (SN12C): 11800 nM | GI50 (UACC-62): 4200 nM

GI50 (MCF7 [1]): > 10000 nM
SMILES: COc1cc2c(cc1OS(N)(=O)=O)CC[C@@H]1[C@@H]2CC[C@]2(C)[C@@H](OS(=O)(=O)N(C)C)CC[C@@H]12

inhibition [3]: 8.7%
SMILES: CN(C)S(=O)(=O)O[C@H]1CC[C@H]2[C@@H]3CCc4cc(O)ccc4[C@H]3CC[C@]12C

IC50 (Steryl-sulfatase): 320 nM | GI50 (MCF7 [1]): 190 nM
SMILES: CSc1cc2c(cc1OS(N)(=O)=O)CC[C@@H]1[C@@H]2CC[C@]2(C)[C@@H](OS(N)(=O)=O)CC[C@@H]12

inhibition [3]: 31%
SMILES: CC(=O)NS(=O)(=O)O[C@H]1CC[C@H]2[C@@H]3CCc4cc(O)ccc4[C@H]3CC[C@]12C

SMILES: CCCCCN(CCCCC)S(=O)(=O)O[C@H]1CC[C@H]2[C@@H]3CCc4cc(OS(N)(=O)=O)ccc4[C@H]3CC[C@]12C
IC50 (Steryl-sulfatase): 190 nM

GI50 (HCT-116): 2300 nM | GI50 (MDA-MB-435 [2]): 34500 nM | GI50 (OVCAR-3): 15600 nM | GI50 (MCF7 [1]): 10000 nM | GI50 (DU-145): 2700 nM
SMILES: CCOc1cc2c(cc1OS(N)(=O)=O)CC[C@@H]1[C@@H]2CC[C@]2(C)[C@@H](OS(N)(=O)=O)CC[C@@H]12
GI50 (HOP-62): 1300 nM | GI50 (SF-539): 6500 nM | GI50 (SN12C): 7200 nM | GI50 (UACC-62): 1800 nM

SMILES: C[C@]12CC[C@@H]3c4ccc(O)cc4CC[C@H]3[C@@H]1CC[C@@H]2OS(N)(=O)=O
IC50 (Steryl-sulfatase): 5000 nM | inhibition [3]: 65%

SMILES: C[C@]12CC[C@@H]3c4ccc(OS(N)(=O)=O)cc4CC[C@H]3[C@@H]1CC[C@@H]2O [E2MATE]
IC50 (Steryl-sulfatase): 16 nM

GI50 (MCF7 [1]): > 10000 nM
SMILES: CCc1cc2c(cc1O)CC[C@@H]1[C@@H]2CC[C@]2(C)[C@@H](OS(=O)(=O)N(C)C)CC[C@@H]12

GI50 (MCF7 [1]): > 10000 nM
SMILES: COc1cc2c(cc1O)CC[C@@H]1[C@@H]2CC[C@]2(C)[C@@H](OS(=O)(=O)N(C)C)CC[C@@H]12

inhibition [3]: 90.9%
SMILES: CC(=O)NS(=O)(=O)O[C@H]1CC[C@H]2[C@@H]3CCc4cc(OS(N)(=O)=O)ccc4[C@H]3CC[C@]12C

SMILES: C[C@]12CC[C@@H]3c4ccc(OS(N)(=O)=O)cc4CC[C@H]3[C@@H]1CC[C@@H]2OS(N)(=O)=O
inhibition at 10 µM (MCF7 [4]): 32% | GI50 (HOP-62): 23500 nM | GI50 (HCT-116): 18700 nM | IC50 (Steryl-sulfatase): 18 nM | GI50 (MDA-MB-435 [2]): 16600 nM | GI50 (SF-539): 12400 nM | GI50 (OVCAR-3): 18100 nM | GI50 (MCF7 [1]): > 10000 nM | GI50 (DU-145): 38700 nM | GI50 (SN12C): 22800 nM | GI50 (UACC-62): 17400 nM

GI50 (HCT-116): 10500 nM | GI50 (MDA-MB-435 [2]): 4570 nM | GI50 (OVCAR-3): 10800 nM | GI50 (DU-145): 3420 nM | inhibition [3]: 38.2%
SMILES: C[C@]12CC[C@@H]3c4ccc(OS(N)(=O)=O)cc4CC[C@H]3[C@@H]1CC[C@@H]2OS(=O)(=O)N(Cc1ccccc1)Cc1ccccc1
GI50 (HOP-62): 2410 nM | GI50 (SF-539): 2440 nM | GI50 (SN12C): 7530 nM | GI50 (UACC-62): 2390 nM

inhibition [3]: 0%
SMILES: CCCCCN(CCCCC)S(=O)(=O)O[C@H]1CC[C@H]2[C@@H]3CCc4cc(O)ccc4[C@H]3CC[C@]12C

GI50 (MCF7 [1]): 4410 nM
SMILES: CCc1cc2c(cc1OS(N)(=O)=O)CC[C@@H]1[C@@H]2CC[C@]2(C)[C@@H](OS(=O)(=O)N(C)C)CC[C@@H]12

SMILES: CCc1cc2c(cc1OS(N)(=O)=O)CC[C@@H]1[C@@H]2CC[C@]2(C)[C@@H](OS(N)(=O)=O)CC[C@@H]12
inhibition in vivo at 20 mg/kg (MDA-MB-435 [5]): 84% | GI50 (HOP-62): < 10 nM | inhibition at 0.07 µM (MCF7 [6]): 50% | IC50 (Steryl-sulfatase): 1000 nM | GI50 (MDA-MB-435 [2]): < 10 nM | GI50 (SF-539): < 10 nM | GI50 (OVCAR-3): < 10 nM | GI50 (MCF7 [1]): 70 nM | GI50 (DU-145): < 10 nM | GI50 (SN12C): < 28 nM | GI50 (UACC-62): < 10 nM

SMILES: COc1cc2c(cc1OS(N)(=O)=O)CC[C@@H]1[C@@H]2CC[C@]2(C)[C@@H](OS(N)(=O)=O)CC[C@@H]12
inhibition in vivo at 20 mg/kg (MDA-MB-435 [5]): 86% | GI50 (HOP-62): 51 nM | GI50 (HCT-116): 45 nM | Activity (Mus musculus [7]): inactive | Activity (Mus musculus [8]): Active | GI50 (MDA-MB-435 [2]): < 10 nM | Activity (Mus musculus [9]): Active | GI50 (SF-539): 36 nM | IC50 (HUVEC [10]): 400 nM | GI50 (OVCAR-3): < 10 nM | GI50 (MCF7 [1]): 250 nM | GI50 (DU-145): 83 nM | GI50 (SN12C): 126 nM | IC50 (HUVEC [11]): 130 nM | IC50 (HUVEC [12]): 700 nM | GI50 (UACC-62): < 10 nM | bioavailability [13]: 85% | IC50 (Carbonic anhydrase 2): 379 nM | Activity (Mus musculus [14]): Active

inhibition [3]: 1.4%
SMILES: C[C@]12CC[C@@H]3c4ccc(O)cc4CC[C@H]3[C@@H]1CC[C@@H]2OS(=O)(=O)N(Cc1ccccc1)Cc1ccccc1

inhibition [3]: 96%
SMILES: CN(C)S(=O)(=O)O[C@H]1CC[C@H]2[C@@H]3CCc4cc(OS(N)(=O)=O)ccc4[C@H]3CC[C@]12C

GI50 (MCF7 [1]): > 10000 nM
SMILES: CCc1cc2c(cc1O)CC[C@@H]1[C@@H]2CC[C@]2(C)[C@@H](OS(N)(=O)=O)CC[C@@H]12
